From patent publication US12077503B2, “Substituted cyclic amides and their use as herbicides” (FMC CORPORATION, priority 2015, dated 2024)
Read-outs that look alike come from different tables or passages of the source.

Experiments:
[1] = test system: barnyardgrass (Echinochloa crus-galli); assay: Test A preemergence; format: in vivo; details: Echinochloa crus-galli, pre-emergence, 240 h; for pest or weed control at 125 g/ha: 125 g ai/ha; for pest or weed control at 500 g/ha: 500 g ai/ha
Method in brief: (§1)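 Seeded soil received test chemicals as a preemergence directed spray, and seedlings at one to two leaves, 2–10 cm tall, received them postemergence, in a non-phytotoxic, surfactant-containing solvent mixture. Pots were held in a greenhouse for approximately 10 d, then rated for injury from 0, no effect, to 100, complete control.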

Kochia (Kochia scoparia) = assay: Test A preemergence; format: in vivo; details: Bassia scoparia, pre-emergence, 240 h; for pest or weed control at 125 g/ha: 125 g ai/ha; for pest or weed control at 500 g/ha: 500 g ai/ha
Method in brief: as §1

[2] = test system: pigweed (Amaranthus retroflexus); assay: Test A preemergence; format: in vivo; details: Amaranthus retroflexus, pre-emergence, 240 h; for pest or weed control at 125 g/ha: 125 g ai/ha; for pest or weed control at 500 g/ha: 500 g ai/ha
[3] = test system: giant foxtail (Setaria faberii); assay: Test A preemergence; format: in vivo; details: Setaria faberi, pre-emergence, 240 h; for pest or weed control at 125 g/ha: 125 g ai/ha; for pest or weed control at 500 g/ha: 500 g ai/ha
Method in brief: as §1

[4] = test system: ragweed (common ragweed, Ambrosia elatior); assay: Test A preemergence; format: in vivo; details: Ambrosia artemisiifolia, pre-emergence, 240 h; for pest or weed control at 125 g/ha: 125 g ai/ha; for pest or weed control at 500 g/ha: 500 g ai/ha
Method in brief: as §1

[5] = test system: ryegrass, Italian (Italian ryegrass, Lolium multiflorum); assay: Test A preemergence; format: in vivo; details: Lolium multiflorum, pre-emergence, 240 h; for pest or weed control at 125 g/ha: 125 g ai/ha; for pest or weed control at 500 g/ha: 500 g ai/ha
Method in brief: as §1

[6] = preemergence, visual rating after approx. 10 d, 0 to 100 scale where 0 is no effect and 100 is complete control, read-out: Plant response rating, Barnyardgrass
[7] = preemergence, 0 to 100 scale, 0 = no effect, 100 = complete control, read-out: Plant response rating, Barnyardgrass
[8] = preemergence, visual rating after approx. 10 d, 0 to 100 scale where 0 is no effect and 100 is complete control, read-out: Plant response rating, Kochia
[9] = preemergence, 0 to 100 scale, 0 = no effect, 100 = complete control, read-out: Plant response rating, Kochia
[10] = preemergence, visual rating after approx. 10 d, 0 to 100 scale where 0 is no effect and 100 is complete control, read-out: Plant response rating, Pigweed
[11] = preemergence, 0 to 100 scale, 0 = no effect, 100 = complete control, read-out: Plant response rating, Pigweed
[12] = preemergence, visual rating after approx. 10 d, 0 to 100 scale where 0 is no effect and 100 is complete control, read-out: Plant response rating, Foxtail, Giant
[13] = preemergence, 0 to 100 scale, 0 = no effect, 100 = complete control, read-out: Plant response rating, Foxtail, Giant
[14] = preemergence, visual rating after approx. 10 d, 0 to 100 scale where 0 is no effect and 100 is complete control, read-out: Plant response rating, Ragweed
[15] = preemergence, 0 to 100 scale, 0 = no effect, 100 = complete control, read-out: Plant response rating, Ragweed
[16] = preemergence, visual rating after approx. 10 d, 0 to 100 scale where 0 is no effect and 100 is complete control, read-out: Plant response rating, Ryegrass, Italian
[17] = preemergence, 0 to 100 scale (0 no effect, 100 complete control), read-out: Plant response rating, Barnyardgrass
[18] = Preemergence, 0 to 100 scale (0 no effect, 100 complete control), read-out: Plant response rating, Barnyardgrass
[19] = preemergence, 0 to 100 scale (0 no effect, 100 complete control), read-out: Plant response rating, Kochia
[20] = Preemergence, 0 to 100 scale (0 no effect, 100 complete control), read-out: Plant response rating, Kochia
[21] = preemergence, 0 to 100 scale (0 no effect, 100 complete control), read-out: Plant response rating, Pigweed
[22] = Preemergence, 0 to 100 scale (0 no effect, 100 complete control), read-out: Plant response rating, Pigweed
[23] = preemergence, 0 to 100 scale (0 no effect, 100 complete control), read-out: Plant response rating, Foxtail, Giant
[24] = Preemergence, 0 to 100 scale (0 no effect, 100 complete control), read-out: Plant response rating, Foxtail, Giant
[25] = preemergence, 0 to 100 scale (0 no effect, 100 complete control), read-out: Plant response rating, Ragweed
[26] = Preemergence, 0 to 100 scale (0 no effect, 100 complete control), read-out: Plant response rating, Ragweed
[27] = preemergence, 0 to 100 scale (0 no effect, 100 complete control), read-out: Plant response rating, Ryegrass, Italian
[28] = Preemergence, 0 to 100 scale (0 no effect, 100 complete control), read-out: Plant response rating, Ryegrass, Italian

`CN1C[C@H](c2cc(F)cc(F)c2)[C@@H](C(=O)NC2CCc3ccccc32)C1=O` (stereo partly drawn) [Compound 755] gave a melting point of 135 to 139 °C, a pest or weed control at 125 g/ha [1, 6] of 0% and a pest or weed control at 500 g/ha [1, 7] of 0%. The pest or weed control at 125 g/ha (Kochia (Kochia scoparia); [8]) was 0%, the pest or weed control at 500 g/ha (Kochia (Kochia scoparia); [9]) was 0% and the pest or weed control at 125 g/ha [2, 10] was 0%. The pest or weed control at 500 g/ha [2, 11] was 0%, the pest or weed control at 125 g/ha [3, 12] was 0% and the pest or weed control at 500 g/ha [3, 13] was 0%. For the same compound, the pest or weed control at 125 g/ha [4, 14] was 0%, the pest or weed control at 500 g/ha [4, 15] was 0% and the pest or weed control at 125 g/ha [5, 16] was 0%. It also gave a pest or weed control at 500 g/ha ([5]; preemergence, 0 to 100 scale, 0 = no effect, 100 = complete control, read-out: Plant response rating, Ryegrass, Italian) of 0%.

For `O=C1NC[C@H](c2cc(C(F)(F)F)ccn2)[C@H]1C(=O)Nc1cccc(F)c1F` (racemic) [Compound 1376], the melting point was 146 to 150 °C, the pest or weed control at 500 g/ha [1, 17] was 100% and the pest or weed control at 125 g/ha [1, 18] was 90%. The pest or weed control at 500 g/ha (Kochia (Kochia scoparia); [19]) was 0%, the pest or weed control at 125 g/ha (Kochia (Kochia scoparia); [20]) was 0% and the pest or weed control at 500 g/ha [2, 21] was 0%. The pest or weed control at 125 g/ha [2, 22] was 0%, the pest or weed control at 500 g/ha [3, 23] was 100% and the pest or weed control at 125 g/ha [3, 24] was 90%. For the same compound, the pest or weed control at 500 g/ha [4, 25] was 0%, the pest or weed control at 125 g/ha [4, 26] was 0% and the pest or weed control at 500 g/ha [5, 27] was 70%. For the same compound, the pest or weed control at 125 g/ha [5, 28] was 20%.

Compound `O=C1NC[C@H](c2cccc(C(F)(F)F)n2)[C@H]1C(=O)Nc1cccc(F)c1F` [Compound 1385] has a melting point of 139 to 142 °C, a pest or weed control at 500 g/ha [1, 17] of 90% and a pest or weed control at 125 g/ha [1, 18] of 90%. For the same compound, the pest or weed control at 500 g/ha (Kochia (Kochia scoparia); [19]) was 20%, the pest or weed control at 125 g/ha (Kochia (Kochia scoparia); [20]) was 0% and the pest or weed control at 500 g/ha [2, 21] was 0%. It also gave a pest or weed control at 125 g/ha [2, 22] of 0%, a pest or weed control at 500 g/ha [3, 23] of 90% and a pest or weed control at 125 g/ha [3, 24] of 90%. The pest or weed control at 500 g/ha [4, 25] was 0%, the pest or weed control at 125 g/ha [4, 26] was 0% and the pest or weed control at 500 g/ha [5, 27] was 0%. For the same compound, the pest or weed control at 125 g/ha [5, 28] was 0%.

`CN1C[C@H](c2nccs2)[C@@H](C(=O)Nc2ccccc2F)C1=O` [Compound 773] gave a melting point of 69.5 to 77 °C, a pest or weed control at 125 g/ha [1, 6] of 0% and a pest or weed control at 500 g/ha [1, 7] of 0%. It also gave a pest or weed control at 125 g/ha (Kochia (Kochia scoparia); [8]) of 0%, a pest or weed control at 500 g/ha (Kochia (Kochia scoparia); [9]) of 0% and a pest or weed control at 125 g/ha [2, 10] of 0%. It also gave a pest or weed control at 500 g/ha [2, 11] of 0%, a pest or weed control at 125 g/ha [3, 12] of 0% and a pest or weed control at 500 g/ha [3, 13] of 0%. The pest or weed control at 125 g/ha [4, 14] was 0%, the pest or weed control at 500 g/ha [4, 15] was 0% and the pest or weed control at 125 g/ha [5, 16] was 0%.

Compound `O=C1NC[C@H](c2cncc(C(F)(F)F)c2)[C@H]1C(=O)Nc1cccc(F)c1F` [Compound 1394] has a melting point of 206 to 209 °C, a pest or weed control at 500 g/ha [1, 17] of 90% and a pest or weed control at 125 g/ha [1, 18] of 90%. It also gave a pest or weed control at 500 g/ha (Kochia (Kochia scoparia); [19]) of 60%, a pest or weed control at 125 g/ha (Kochia (Kochia scoparia); [20]) of 40% and a pest or weed control at 500 g/ha [2, 21] of 30%. For the same compound, the pest or weed control at 125 g/ha [2, 22] was 0%, the pest or weed control at 500 g/ha [3, 23] was 90% and the pest or weed control at 125 g/ha [3, 24] was 90%. It also gave a pest or weed control at 500 g/ha [4, 25] of 80%, a pest or weed control at 125 g/ha [4, 26] of 20% and a pest or weed control at 500 g/ha [5, 27] of 60%. For the same compound, the pest or weed control at 125 g/ha [5, 28] was 50%.

With `CN1CC[C@H](c2cccc(C(F)(F)F)c2)[C@@H](C(=O)Nc2ccccc2F)C1=O` [Compound 1331] the melting point was 113 to 116 °C, the pest or weed control at 500 g/ha [1, 17] was 90% and the pest or weed control at 125 g/ha [1, 18] was 90%. The pest or weed control at 500 g/ha (Kochia (Kochia scoparia); [19]) was 0%, the pest or weed control at 125 g/ha (Kochia (Kochia scoparia); [20]) was 0% and the pest or weed control at 500 g/ha [2, 21] was 0%. The pest or weed control at 125 g/ha [2, 22] was 0%, the pest or weed control at 500 g/ha [3, 23] was 100% and the pest or weed control at 125 g/ha [3, 24] was 90%. It also gave a pest or weed control at 500 g/ha [4, 25] of 0%, a pest or weed control at 125 g/ha [4, 26] of 0% and a pest or weed control at 500 g/ha [5, 27] of 80%. The pest or weed control at 125 g/ha [5, 28] was 20%.

Work on `CN1C[C@H](c2nccs2)[C@@H](C(=O)Nc2cccc(F)c2F)C1=O` [Compound 774] yielded a melting point of 133.9 to 140.7 °C, a pest or weed control at 125 g/ha [1, 6] of 0% and a pest or weed control at 500 g/ha ([1]; Preemergence, visual injury vs untreated controls after approximately 10 d, read-out: Barnyardgrass plant response rating (0 to 100 scale where 0 is no effect and 100 is complete control)) of 0%. For the same compound, the pest or weed control at 125 g/ha (Kochia (Kochia scoparia); [8]) was 0%, the pest or weed control at 500 g/ha (Kochia (Kochia scoparia); Preemergence, visual injury vs untreated controls after approximately 10 d, read-out: Kochia plant response rating (0 to 100 scale where 0 is no effect and 100 is complete control)) was 0% and the pest or weed control at 125 g/ha [2, 10] was 0%. For the same compound, the pest or weed control at 500 g/ha ([2]; Preemergence, visual injury vs untreated controls after approximately 10 d, read-out: Pigweed plant response rating (0 to 100 scale where 0 is no effect and 100 is complete control)) was 0%, the pest or weed control at 125 g/ha [3, 12] was 0% and the pest or weed control at 500 g/ha ([3]; Preemergence, visual injury vs untreated controls after approximately 10 d, read-out: Foxtail, Giant plant response rating (0 to 100 scale where 0 is no effect and 100 is complete control)) was 0%. For the same compound, the pest or weed control at 125 g/ha [4, 14] was 0%, the pest or weed control at 500 g/ha ([4]; Preemergence, visual injury vs untreated controls after approximately 10 d, read-out: Ragweed plant response rating (0 to 100 scale where 0 is no effect and 100 is complete control)) was 0% and the pest or weed control at 125 g/ha [5, 16] was 0%. It also gave a pest or weed control at 500 g/ha ([5]; Preemergence, visual injury vs untreated controls after approximately 10 d, read-out: Ryegrass, Italian plant response rating (0 to 100 scale where 0 is no effect and 100 is complete control)) of 0%.
